Experimental data taken from publication PMC7865627, “Small Molecule-Based Prodrug Targeting Prostate Specific Membrane Antigen for the Treatment of Prostate Cancer” (Cancers, 2021).
Like-named read-outs stand apart in the source and are kept apart here. *1 amine or outer side, *2 acyl side, *3 side chain or, on linkers, in order; H or OH if unused. Where a SMILES comes first, the peptide text is derived from it. Bridges are numbered along the chain shown (N, C = ends). Roman numbers before positions name the chains, in order. [ ]: non-standard residue; d: D form. The star is where a group is joined. X3 = CN1/C(=C/C=C/C=C/C2=[N+](CCCCCC(=O)*)c3ccc4ccccc4c3C2(C)C)C(C)(C)c2c1ccc1ccccc21; Dolaproine = CO[C@@H]([C@@H]1CCCN1)[C@@H](C)C(=O)O; Dil = CC[C@H](C)[C@H](NC)[C@@H](CC(=O)O)OC; X4 = O=C1CC([*:2])C(=O)N1CCCCCC(=O)[*:1]; γGlu = O=C(O)[C@H](CCC(=O)[*:2])N[*:1]; PABC = O=C(OCc1ccc(N[*:1])cc1)[*:2]; X2 = C[C@@H](N*)[C@@H](O)c1ccccc1; Trx = NC[C@H]1CC[C@H](C(=O)O)CC1; Cit = NC(=O)NCCC[C@H](N)C(=O)O; NMeV = CN[C@H](C(=O)O)C(C)C; CO = O=C([*:1])[*:2]; Ahx = NCCCCCC(=O)O

How the values were obtained:
[1] = Stability on incubation in PBS (without cathepsin), HPLC; type: in vitro ADME; details: incubation with PBS without cathepsin, triplicate
Protocol: (§1) Cathepsin is a prevalent protease that PSMA internalized ligands will encounter as they enter into late endosomes/lysosomes. To investigate if PSMA-targeted drug conjugates were cleavable by cathepsin B, the two conjugates were incubated with or without cathepsin protease and chromatographed by high performance liquid chromatography (HPLC).
(§2) At different time intervals, 40 μL of the solution was taken out into tubes loaded with 1 μL of 1 mM E64 protease inhibitor. […] Studies were performed in triplicate.

[2] = test system: heterotopic PC3pip and PC3flu tumors; assay: In vivo NIR fluorescence imaging, mice bearing PC3pip and PC3flu tumors; set-up: species or system mouse; details: 40 nmol/kg i.v., 24-h post-injection, n = 5
Protocol: Under guidelines of the animal care and use committee at Case Western Reserve University (IACUC#150033) 6–8-week old male Balb/c athymic nude mice were implanted subcutaneously with 1 × 10^6 of PC3flu and PC3pip in 100 μL of matrigel on the left and right flank, respectively. […] Fluorescence imaging was performed using the Maestro In Vivo Imaging system (Perkin-Elmer Inc., Waltham, MA, USA). At 72-h post injection, mice were euthanized, tumor and organs were extracted for ex vivo imaging. Tumors were snap-frozen in OCT, cut into 10 μm thick sections and fixed on slides. The fluorescence signal from cy5.5 was observed under a Leica DM4000B microscope.

[3] = test system: PSMA-positive PC3pip cells; assay: In vitro cytotoxicity assay (CCK-8), PC3pip; type: cell-based, human
Protocol: (§3) Cells (1000/well) were seeded in 96-well culture plates the day before treatment.

[4] = test system: α-tubulin in PC3flu cells; assay: Immunofluorescence analysis of alpha-tubulin, PC3flu; type: cell-based, human; details: 5 nM, 24 h, Alexa Fluor 488 α-tubulin antibody
Protocol: (§4) Cells were washed and fixed with 4% paraformaldehyde for 10 min, permeabilized with 0.1% Triton™ X-100 for 10 min, and blocked with 1% BSA for 1 h at room temperature. Alpha-tubulin (B5-1-2) Alexa Fluor 488 Mouse Monoclonal Antibody (Invitrogen) was then added at 2 µg/mL in 0.1% BSA and incubated for 3 h at room temperature. Cells were counterstained with DAPI, mounted with Fluor-Mount aqueous mounting solution, and observed under Leica DM4000B fluorescence microscopy at 40×.

[5] = test system: PSMA-negative PC3flu cells; assay: In vitro cellular uptake (confocal fluorescence), PC3flu; type: cell-based, human; details: 50 nM conjugate, 4 h, 37 °C, confocal microscopy
Protocol: Figure 2 In vitro fluorescence studies of PSMA-1-MMAE-Cy5.5 conjugates. In vitro cellular uptake results of PSMA-targeted drug conjugates. Cells were incubated with 50 nM of drug conjugates for 4 h. Nuclei were stained by DAPI and are false colored blue, lysosomes were detected by LysoOrange and are false colored green, and drug conjugates are false colored red. Selective uptake was observed only in PC3pip cells and the conjugates were mainly located in lysosomes. Specificity of drug conjugates for PSMA binding was evaluated by including 1 mM of unlabeled PSMA-1 ligand during incubations. […] Images are taken at 40×. Representative images are shown from three independent experiments.
PC3pip and PC3flu cells were seeded in µ-Slide 8-Well Chamber Slide (ibidi GmbH, Munich, Germany) at 2000 cells/well. […] Cells were washed with PBS and stained with DAPI and LysoOrange (Abcam Inc., Cambridge, UK) for 30 min at 37 °C and 5% CO2, after which they were washed again with PBS and fresh medium added. Selectivity was determined by including 20-fold excess of the PSMA-1 ligand. The uptake and localization of the drug conjugates were visualized under a confocal microscope (Leica Biosystem, Wetzlar, Germany) at 40×.

[6] = test system: PSMA-negative PC3flu cells; assay: In vitro cytotoxicity assay (CCK-8), PC3flu; type: cell-based, human; details: 72 h incubation, CCK-8; mean ± SD
Protocol: as §3

[7] = biological target: T1, human liver cathepsin B (Homo sapiens, UniProt P07858); assay: Enzymatic cleavage by cathepsin B, HPLC analysis; type: in vitro ADME; details: activated human liver cathepsin B, 2 μM conjugate, 37 °C, triplicate
T1 construct: purchased Anthens Research and Technology, Anthens, AL, USA (so in the source); host or cells: human liver (tissue-derived enzyme)
Protocol: as §1, §2

[8] = test system: α-tubulin in PC3pip cells; assay: Immunofluorescence analysis of alpha-tubulin, PC3pip; type: cell-based, human; details: 5 nM, 24 h, Alexa Fluor 488 α-tubulin antibody
Protocol: as §4

[9] = biological target: PSMA receptor; details: cited from earlier work
Source text: Prostate-specific membrane antigen (PSMA) is a type II transmembrane protein that is overexpressed (by 100–1000 fold) by virtually all prostate cancers. PSMA expression is further increased in poorly differentiated, metastatic, hormone-refractory carcinomas and in cancer cells from castration-resistant prostate cancer patients. Increased PSMA expression is correlated with the risk of early prostate cancer recurrence after radical prostatectomy. […] BIND014 increased intr ...

[10] = In vitro cytotoxicity assay (CCK-8), PC3pip; type: cell-based, human
Protocol: as §3

[11] = test system: heterotopic PC3pip tumors; assay: Heterotopic PC3pip tumor survival study; type: in vivo; details: 160 nmol/kg, tumors extracted on day 4, compared with PSMA-1-McMMAE-Cy5.5
[12] = test system: heterotopic PC3pip tumors; assay: Heterotopic PC3pip tumor survival study; type: in vivo
Protocol: Male athymic nude mice were implanted subcutaneously with 1 × 10^6 of PC3pip cells 100 μL of matrigel. When tumor size reached approximately 100 mm^3 (tumor volume = Length × width^2/2), mice received drugs through tail vein injection every 4 days with a total of five doses. Mice were treated every 4 days with a total of five doses. Animals were weighed and tumor size measured every other day for 90 days. Cures were defined as no tumor present at end of the 90-day study. When tumors became too large or animals were moribund they were euthanized. Five mice were used in each group.

[13] = test system: tumor-free athymic nude mice; assay: Maximum tolerated dose, single i.v. dose; type: in vivo, mouse; details: male nude mice, 3 per dose group, 14 days, 20% body weight loss or overt toxicity as end point
Source text: Mice were monitored daily for 14 days.

[14] = 72 h incubation, CCK-8, mean ± SD
[15] = 160 nmol/kg i.v. every 4 days, five doses, n = 5

CC[C@H](C)[C@@H]([C@@H](CC(=O)N1CCC[C@H]1[C@H](OC)[C@@H](C)C(=O)N[C@H](C)[C@@H](O)c1ccccc1)OC)N(C)C(=O)[C@@H](NC(=O)[C@H](C(C)C)N(C)C(=O)CCCCCN1C(=O)CC(SC[C@H](NC(=O)[C@@H](CCC(=O)O)NC(=O)[C@@H](CCC(=O)O)NC(=O)[C@@H](CCC(=O)O)NC(=O)CCCCCNC(=O)[C@H]2CC[C@H](CNC(=O)CC[C@H](NC(=O)N[C@@H](CCC(=O)O)C(=O)O)C(=O)O)CC2)C(=O)NCCCCCC(=O)N[C@@H](CCCCNC(=O)CCCCC[N+]2=C(/C=C/C=C/C=C3/N(C)c4ccc5ccccc5c4C3(C)C)C(C)(C)c3c2ccc2ccccc32)C(N)=O)C1=O)C(C)C (stereo partly drawn) [PSMA-1-McMMAE-Cy5.5]
stability in PBS (in words) [1]: stable | uptake in PSMA-negative PC3flu tumors (in words) [2]: little to no detectable uptake | EC50, cytotoxicity to PC3pip cells [3, 14]: no EC50 values could be obtained | disruption of α-tubulin in PC3flu cells (in words) [4]: no apparent disruption of tubulin | cellular uptake, fluorescence in PC3flu cells (in words) [5]: no fluorescence signal was observed | EC50, cytotoxicity to PC3flu cells [6]: no EC50 values could be obtained | cleavage by cathepsin B (in words) [7]: remained intact | disruption of α-tubulin in PC3pip cells (in words) [8]: no apparent disruption of tubulin

O=C(O)CCC(NC(=O)NC(CCC(=O)O)C(=O)O)C(=O)O (stereo not drawn) [DUPA, 2-(3-(1,3-dicarboxypropyl)-ureido) pentanedioic acid]
Ki ([9]; read-out: Ki to PSMA receptor (DUPA)): 8 nM

NCCCC[C@H](NC(=O)N[C@@H](CCC(=O)O)C(=O)O)C(=O)O [ZJ24, (S)-2-(3-((S)-5-amino-1-carboxypentyl)ureido) pentanedioic acid]
Ki ([9]; read-out: Ki to PSMA (ZJ24)): 0.3 nM

CC[C@H](C)[C@@H]([C@@H](CC(=O)N1CCC[C@H]1[C@H](OC)[C@@H](C)C(=O)N[C@H](C)[C@@H](O)c1ccccc1)OC)N(C)C(=O)[C@@H](NC(=O)[C@H](C(C)C)N(C)C(=O)OCc1ccc(NC(=O)[C@H](CCCNC(N)=O)NC(=O)[C@@H](NC(=O)CCCCCN2C(=O)CC(SC[C@H](NC(=O)[C@@H](CCC(=O)O)NC(=O)[C@@H](CCC(=O)O)NC(=O)[C@@H](CCC(=O)O)NC(=O)CCCCCNC(=O)[C@H]3CC[C@H](CNC(=O)CC[C@H](NC(=O)N[C@@H](CCC(=O)O)C(=O)O)C(=O)O)CC3)C(=O)NCCCCCC(=O)N[C@@H](CCCCNC(=O)CCCCC[N+]3=C(/C=C/C=C/C=C4/N(C)c5ccc6ccccc6c5C4(C)C)C(C)(C)c4c3ccc3ccccc43)C(N)=O)C2=O)C(C)C)cc1)C(C)C (stereo partly drawn) [PSMA-1-VcMMAE-Cy5.5] (I: V[Cit][PABC][NMeV]V[Dil][Dolaproine]-X2 / II: {Glu-CO-γGlu-Trx-Ahx}-[dE][dE][dE]C[Ahx]K(X3)-NH2; linker I:N-II:4 via X4)
stability in PBS (in words) [1]: stable | uptake in PSMA-negative PC3flu tumors (in words) [2]: little to no detectable uptake | EC50 ([10]; 72 h, CCK-8, in the presence of protease inhibitor E64 (50 μM given for the Cy5.5 conjugates), read-out: EC50, cytotoxicity to PC3pip cells + E64): 3.66 nM | EC50 ([10]; 72 h incubation, CCK-8, mean ± SD, read-out: EC50, cytotoxicity to PC3pip cells): 0.84 nM | apoptosis, caspase 3 staining of tumors (in words) [11]: significantly more apoptosis | cures (tumor-free mice at end of 90-day study), 160 nmol/kg [12, 15]: 3/5 and three out of five | tumor growth (in words), 160 nmol/kg [12, 15]: effectively inhibited tumor growth | cures, lower dose group of Figure S4B ([12]; dose group not printed beside the label, i.v. every 4 days, five doses, n = 5): 1/5 | disruption of α-tubulin in PC3flu cells (in words) [4]: no obvious changes in α-tubulin structure | cellular uptake, fluorescence in PC3flu cells (in words) [5]: no fluorescence signal was observed | cleavage by cathepsin B (in words) [7]: degraded rapidly | half-life in the presence of cathepsin [7]: 19.8 min | disruption of α-tubulin in PC3pip cells (in words) [8]: selective tubulin disruption

CC[C@H](C)[C@@H]([C@@H](CC(=O)N1CCC[C@H]1[C@H](OC)[C@@H](C)C(=O)N[C@H](C)[C@@H](O)c1ccccc1)OC)N(C)C(=O)[C@@H](NC(=O)[C@@H](NC)C(C)C)C(C)C [MMAE, monomethyl auristatin E, reference compound] (H-[NMeV]V[Dil][Dolaproine]-X2)
maximum tolerated dose (MTD) [13]: 700 nmol/kg | EC50 [3, 14]: 0.24 ± 0.05 nM | selectivity, differential cytotoxicity ratio between PC3pip and PC3flu cells ([3]; more potent for PC3pip than PC3flu): no selectivity | tumor growth (in words), 160 nmol/kg [12, 15]: did not show any antitumor activity | therapeutic index ([12]; MTD/effective dose): 1 | lowest dose to effectively inhibit tumor growth ([12]; i.v. every 4 days, five doses, tumor growth inhibited for 30 days, n = 5): 700 nmol/kg | EC50 [6]: 0.21 ± 0.04 nM
